Measurements taken from patent US20200121801A1, “DRUG DELIVERY CONJUGATES CONTAINING UNNATURAL AMINO ACIDS AND METHODS FOR USING” (priority 2012, published 2020).
Entries after “also recorded” stand apart in the source; their conditions may differ. Read-outs that look alike come from different tables or passages of the source.

What was measured:
KB tumors = test: Inhibition of tumor growth, s.c. KB tumors in nu/nu mice; assay type: in vivo; parameters: key to In vivo activity (e): CR = complete response, where tumor volume, as defined herein, during the observation period was zero for all test animals in the group; conditions: for In vivo activity (e): subcutaneous KB tumor in nu/nu mice
Procedure: METHOD. Inhibition of Tumor Growth in Mice. […] For tumor cell inoculation, 1×10^6 M109 cells (a syngeneic lung carcinoma) in Balb/c strain, or 1×10^6 KB cells in nu/nu strain, in 100 μL are injected in the subcutis of the dorsal medial area (right axilla).
METHOD. Toxicity as Measured by Weight Loss. The percentage weight change of the test animals is determined on selected days post-tumor inoculation (PTI), and during dosing. The results are graphed.

KB cells (FR+) = assay type: cell-based, Human; conditions: for In vitro specificity (fold) (d): IC50 competed group vs non-competed group
Procedure: METHOD. Inhibition of Cellular DNA Synthesis. The compounds described herein are evaluated using an in vitro cytotoxicity assay that predicts the ability of the drug to inhibit the growth of folate receptor-positive cells, such as KB cells, RAW264.7 macrophages, and the like. It is to be understood that the choice of cell type can made on the basis of the susceptibility of those selected cells to the drug that forms the conjugate. The test compounds are comprised of folate linked to a respective chemotherapeutic drug, as prepared according to the processes described herein. The test cells are exposed to varying concentrations of folate-drug conjugate, and also in the absence or presence of at least a 100-fold excess of folic acid to assess activity as being specific to folate receptor mediation.
EXAMPLE. Conjugates of cytotoxic drugs described herein are active against KB cells. The activity is mediated by the folate receptor as indicated by competition experiments using co-administered folic acid. KB cells are exposed for up to 7 h at 37° C. to the indicated concentrations of folate-drug conjugate in the absence or presence of at least a 100-fold excess of folic acid. The cells are then rinsed once with fresh culture medium and incubated in fresh culture medium for 72 hours at 37° C. Cell viability was assessed using a ^3H-thymidine incorporation assay.
METHOD. In vitro activity against various cancer cell lines. IC50 values are generated for various cell lines. Cells are heavily seeded in 24-well Falcon plates and allowed to form nearly confluent monolayers overnight. Thirty minutes prior to the addition of the test compound, spent medium is aspirated from all wells and replaced with fresh folate-deficient RPMI medium (FFRPMI). A subset of wells are designated to receive media containing 100 μM folic acid. The cells in the designated wells are used to determine the targeting specificity. Without being bound by theory it is believed herein that the cytotoxic activity produced by test compounds in the presence of excess folic acid, i.e. where there is competition for FR binding, corresponds to the portion of the total activity that is unrelated to FR-specific delivery. Following one rinse with 1 mL of fresh FFRPMI containing 10% heat-inactivated fetal calf serum, each well receives 1 mL of medium containing increasing concentrations of test compound (4 wells per sample) in the presence or absence of 100 μM free folic acid as indicated. Treated cells are pulsed for 2 h at 37° C., rinsed 4 times with 0.5 mL of media, and then chased in 1 mL of fresh medium up to 70 h. Spent medium is aspirated from all wells and replaced with fresh medium containing 5 μCi/mL ^3H-thymidine. Following a further 2 h 37° C. incubation, cells are washed 3 times with 0.5 mL of PBS and then treated with 0.5 mL of ice-cold 5% trichloroacetic acid per well. After 15 min, the trichloroacetic acid is aspirated and the cell material solubilized by the addition of 0.5 mL of 0.25 N sodium hydroxide for 15 min. A 450 μL aliquot of each solubilized sample is transferred to a scintillation vial containing 3 mL of Ecolume scintillation cocktail and then counted in a liquid scintillation counter. Final results are expressed as the percentage of ^3H-thymidine incorporation relative to untreated controls.

[1] = Plasma stability / free drug release after s.c. dose (EC1496 vs EC0746); assay type: in vivo, rats
Procedure: METHOD. Human serum stability. Compounds described herein are tested in human serum for stability using conventional protocols and methods. Briefly, test compound is administered to the test animal, such as by subcutaneous injection. The plasma concentration of the conjugate, and optionally one or more metabolites, is monitored over time. The results are graphed to determine Cmax, Tmax, half-life, and AUC for the test compound and metabolites.
EXAMPLE. […] EC1495 and EC0746 (comparator compound) are each administered at 500 nmol/kg by subcutaneous injection. The plasma concentration of the conjugate and the metabolites (aminopterin and aminopterin hydrazide) are monitored over time. […] As also shown in the following table, free drug is released as the parent aminopterin and the hydrazide derivative (EC0470).

[2] = target: T1, folate receptors (FRs) on KB cells (Homo sapiens, UniProt P15328); test: Relative affinity assay (3H-folic acid competition) on KB cells; assay type: binding; conditions: for Relative Affinity (a) compared to folic acid: folic acid = 1, in 10% serum/FDRPMI
T1 construct: FR-positive KB cells are heavily seeded into 24-well cell culture plates; endogenous in cells; host or cells: KB cells
Procedure: METHOD. Relative Affinity Assay. The affinity for folate receptors (FRs) relative to folate is determined according to a previously described method (Westerhof, G. R., J. H. Schornagel, et al. (1995) Mol. Pharm. 48: 459-471) with slight modification. Briefly, FR-positive KB cells are heavily seeded into 24-well cell culture plates and allowed to adhere to the plastic for 18 h. Spent incubation media is replaced in designated wells with folate-free RPMI (FFRPMI) supplemented with 100 nM ^3H-folic acid in the absence and presence of increasing concentrations of test article or folic acid. Cells are incubated for 60 min at 37° C. and then rinsed 3 times with PBS, pH 7.4. Five hundred microliters of 1% SDS in PBS, pH 7.4, is added per well. Cell lysates are then collected and added to individual vials containing 5 mL of scintillation cocktail, and then counted for radioactivity. Negative control tubes contain only the ^3H-folic acid in FFRPMI (no competitor). Positive control tubes contain a final concentration of 1 mM folic acid, and CPMs measured in these samples (representing non-specific binding of label) are subtracted from all samples.

[3] = Plasma clearance after s.c. administration; assay type: in vivo, Lewis rats; conditions: EC1669 500 nmol/kg s.c.
Procedure: METHOD. Plasma clearance. In vivo studies include a minimum of 3 test animals, such as rats, per time point. Illustratively, female Lewis rats with jugular vein catheters (Harlan, regular rodent diet) are given a single subcutaneous injection of test compound, such as EC1669 at 500 nmol/kg. Whole blood samples (300 μL) are collected at the following time points: 1 min, 10 min, 30 min, 1 h, 2 h, 3 h, 4 h, 8 h, and 12 h after injection. The blood samples are placed into anti-coagulant tubes containing 1.7 mg/mL of K3-EDTA and 0.35 mg/mL of N-maleoyl-beta-alanine (0.35 mg/mL) in a 0.15% acetic acid solution. Plasma samples are obtained by centrifugation for 3 min at ˜2,000 g and stored at −80° C. The amounts of test compound in the plasma and any metabolites, such as EC1669 and its two active metabolites aminopterin (AMT) and AMT hydrazide (EC0470), respectively, are quantified by LC-MS/MS.

[4] = IC50 for test compound when competed with excess folic acid, read-out: 50% competition (nM) (c)
[5] = as determined by thymidine incorporation, read-out: In vitro IC50 (nM) (b)

T1 sequence (P15328 25-234): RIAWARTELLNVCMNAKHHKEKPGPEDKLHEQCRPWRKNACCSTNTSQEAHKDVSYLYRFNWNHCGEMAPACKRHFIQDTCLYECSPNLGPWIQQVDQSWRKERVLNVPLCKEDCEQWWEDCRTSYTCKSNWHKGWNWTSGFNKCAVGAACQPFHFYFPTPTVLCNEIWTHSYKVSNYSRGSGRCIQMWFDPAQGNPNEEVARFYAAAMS

Molecule: N=c1[nH]c(N)nc2ncc(CNc3ccc(C(=O)N[C@@H](CCC(=O)NNC(=O)OCCSSC[C@H](NC(=O)[C@H](CCC(=O)NC[C@H](O)[C@@H](O)[C@H](O)[C@H](O)CO)NC(=O)[C@H](CCC(=O)O)NC(=O)[C@H](CCC(=O)NC[C@H](O)[C@@H](O)[C@H](O)[C@H](O)CO)NC(=O)[C@H](CCC(=O)O)NC(=O)[C@H](CCC(=O)NC[C@H](O)[C@@H](O)[C@H](O)[C@H](O)CO)NC(=O)CC[C@H](NC(=O)c4ccc(NCc5cnc6nc(N)[nH]c(=O)c6n5)cc4)C(=O)O)C(=O)O)C(=O)O)cc3)nc12 [EC0531, reference compound]
- In vivo activity (e) (KB tumors): CR
- In vitro specificity (fold) (d) (KB cells (FR+)): 237 fold

Molecule: CCCC(=O)OCN(C(=O)[C@@H](NC(=O)[C@H]1CCCCN1C)C(C)CC)[C@H](C[C@H](OC(C)=O)c1nc(C(=O)N[C@H](Cc2ccc(O)cc2)C[C@H](C)C(=O)NNC(=O)OCCSSC[C@H](NC(=O)[C@H](CCC(=O)NC[C@H](O)[C@@H](O)[C@H](O)[C@H](O)CO)NC(=O)[C@H](CCC(=O)O)NC(=O)[C@H](CCC(=O)NC[C@H](O)[C@@H](O)[C@H](O)[C@H](O)CO)NC(=O)[C@H](CCC(=O)O)NC(=O)[C@H](CCC(=O)NC[C@H](O)[C@@H](O)[C@H](O)[C@H](O)CO)NC(=O)CC[C@H](NC(=O)c2ccc(NCc3cnc4nc(N)[nH]c(=O)c4n3)cc2)C(=O)O)C(=O)O)cs1)C(C)C (some centres unmarked) [EC0746, reference compound]
- Free drug released (%): AMT ([1]; 500 nmol/kg s.c., plasma): 11.0%
- Free drug released (%): AMT-hydrazide (EC0470) ([1]; 500 nmol/kg s.c., plasma): 7.4%
- Free drug released (%): Total ([1]; 500 nmol/kg s.c., plasma): 18.4%
- drug released relative to EC1496 ([1]; after a subcutaneous dose in rats): more than 2 fold

Molecule: CCCC(=O)OCN(C(=O)[C@@H](NC(=O)[C@H]1CCCCN1C)C(C)CC)[C@H](C[C@@H](OC(C)=O)c1nc(C(=O)N[C@@H](Cc2ccc(O)cc2)C[C@H](C)C(=O)NNC(=O)OCCSSC[C@@H](NC(=O)[C@@H](CC(=O)O)NC(=O)[C@@H](CC(=O)O)NC(=O)[C@@H](CCCNC(=N)N)NC(=O)[C@@H](CC(=O)O)NC(=O)CC[C@@H](NC(=O)c2ccc(NCc3cnc4nc(N)[nH]c(=O)c4n3)cc2)C(=O)O)C(=O)O)cs1)C(C)C (some centres unmarked) [EC1299]
- Relative Affinity (a) compared to folic acid [2]: 0.29
- In vivo activity (e) (KB tumors): CR
- In vitro specificity (fold) (d) (KB cells (FR+)): 778 fold
- IC50 (KB cells (FR+); [4]): 700 nM
- IC50 (KB cells (FR+); [5]): 0.9 nM

Molecule: CCCC(=O)OCN(C(=O)[C@@H](NC(=O)[C@H]1CCCCN1C)C(C)CC)[C@H](C[C@@H](OC(C)=O)c1nc(C(=O)N[C@@H](Cc2ccc(O)cc2)C[C@H](C)C(=O)NNC(=O)OCCSSC(C)(C)[C@@H](NC(=O)[C@@H](CC(=O)O)NC(=O)[C@@H](CC(=O)O)NC(=O)[C@@H](CCCNC(=N)N)NC(=O)[C@@H](CC(=O)O)NC(=O)CC[C@@H](NC(=O)c2ccc(NCc3cnc4nc(N)[nH]c(=O)c4n3)cc2)C(=O)O)C(=O)O)cs1)C(C)C (some centres unmarked) [EC1393]
- Relative Affinity (a) compared to folic acid [2]: 0.25
- In vitro specificity (fold) (d) (KB cells (FR+)): 300 fold

Molecule: CCCC(=O)OCN(C(=O)[C@@H](NC(=O)[C@H]1CCCCN1C)C(C)CC)[C@H](C[C@@H](OC(C)=O)c1nc(C(=O)N[C@@H](Cc2ccc(O)cc2)C[C@H](C)C(=O)NNC(=O)OCCSSC[C@@H](NC(=O)[C@H](CC(=O)O)NC(=O)[C@H](CC(=O)O)NC(=O)[C@H](CCCNC(=N)N)NC(=O)[C@H](CC(=O)O)NC(=O)CC[C@H](NC(=O)c2ccc(NCc3cnc4nc(N)[nH]c(=O)c4n3)cc2)C(=O)O)C(=O)O)cs1)C(C)C (some centres unmarked) [EC1548]
- Relative Affinity (a) compared to folic acid [2]: 0.23
- In vivo activity (e) (KB tumors): CR
- In vitro specificity (fold) (d) (KB cells (FR+)): 78 fold
- IC50 (KB cells (FR+); [4]): 350 nM
- IC50 (KB cells (FR+); [5]): 4.4 nM

Molecule: CCCC(=O)OCN(C(=O)[C@@H](NC(=O)[C@H]1CCCCN1C)C(C)CC)C(C[C@@H](OC(C)=O)c1nc(C(=O)N[C@@H](Cc2ccc(O)cc2)C[C@H](C)C(=O)NNC(=O)OCCSSC[C@@H](NC(=O)[C@@H](CC(=O)O)NC(=O)[C@H](CC(=O)O)NC(=O)[C@H](CCCNC(=N)N)NC(=O)[C@H](CC(=O)O)NC(=O)CC[C@H](NC(=O)c2ccc(NCc3cnc4nc(N)[nH]c(=O)c4n3)cc2)C(=O)O)C(=O)O)cs1)C(C)C (some centres unmarked) [EC1549]
- Relative Affinity (a) compared to folic acid [2]: 0.90
- In vivo activity (e) (KB tumors): CR
- In vitro specificity (fold) (d) (KB cells (FR+)): 78 fold
- IC50 (KB cells (FR+); [4]): 350 nM
- IC50 (KB cells (FR+); [5]): 4.5 nM

Molecule: CCCCOCN(C(=O)[C@@H](NC(=O)[C@H]1CCCCN1C)C(C)CC)[C@H](C[C@@H](OC(C)=O)c1nc(C(=O)N[C@@H](Cc2ccc(O)cc2)C[C@H](C)C(=O)NNC(=O)OCCSSC[C@@H](NC(=O)[C@H](CCC(=O)NC[C@H](O)[C@@H](O)[C@H](O)[C@H](O)CO)NC(=O)[C@@H](CCC(=O)O)NC(=O)[C@H](CCC(=O)NC[C@H](O)[C@@H](O)[C@H](O)[C@H](O)CO)NC(=O)[C@@H](CCC(=O)O)NC(=O)[C@H](CCC(=O)NC[C@H](O)[C@@H](O)[C@H](O)[C@H](O)CO)NC(=O)CC[C@@H](NC(=O)c2ccc(NCc3cnc4nc(N)[nH]c(=O)c4n3)cc2)C(=O)O)C(=O)O)cs1)C(C)C (some centres unmarked) [EC1663]
- partial responses (test animals) (KB tumors; 0.5 μmol/kg i.v. TIW, 2 weeks): 4/4
- whole animal toxicity (KB tumors; 0.5 μmol/kg i.v. TIW, 2 weeks): did not exhibit significant host animal toxicity; also recorded: whole animal toxicity was not observed

Molecule: CN(Cc1cnc2nc(N)nc(N)c2n1)c1ccc(C(=O)N[C@@H](CCC(=O)O)C(=O)O)cc1 [methotrexate, reference compound]
- binding to the cell surface FRs ([2]; in comparison to EC1669): poor binding

Molecule: aminopterin hydrazide [EC0470, reference compound]
- AUC of EC1669-derived metabolite [3]: 3.9 nmol·min/mL
- elimination half-life of EC1669-derived metabolite [3]: 1.87 h
- Cmax ([3]; plasma, read-out: Cmax of EC1669-derived metabolite): 21 nM
